US20240025906A1 (NEURON23, INC., priority 2022, published 2024)
Like-named read-outs stand apart in the source and are kept apart here.

Assays:
[1] = molecular target: T1, TYK2 JH2 (Homo sapiens, UniProt P29597); assay: TYK2 JH2 binding assay (KINOMEscan KdELECT competitive binding); details: TYK2 JH2 domain, read-out: Biochemical TYK2_DiscoverX_JH2_BND_Kd
T1 construct: purchased DiscoverX (KINOMEscan KdELECT service); host or cells: E. coli BL21-derived (T7 phage display) or HEK-293
Procedure, shortened: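 The assay measures displacement of DNA- or phage-tagged TYK2 pseudokinase domain from an affinity resin; compound binding lowers the amount captured, read by qPCR. Incubation lasts 1 h at room temperature.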

[2] = tested on: JAK1/TYK2 pSTAT5 (Tyr694/699) in THP-1 cell line; assay: IFNa-stimulated JAK1/TYK2 pSTAT5 (Tyr694/699) inhibition cellular assay, AlphaLISA; format: cell-based; details: Homo sapiens; THP-1 cells, IFNa-stimulated, AlphaLISA (Assay B); read-out: Cellular_THP1_IFNa-pSTATS_TYK2
Procedure, shortened: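 THP-1 cells (2e4/well) in HBSS preincubated 1 h at 37° C. with compound (final 10000–0.04 nM, 8 points, 6-fold), then stimulated with IFNa (100 ng/mL stock) for 30 min before lysis. pSTAT5 (Tyr694/699) read by AlphaLISA at 615 nm; IC50 from four-parameter logistic fit with bottom fixed at 0 and Hill slope at −1.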

[3] = DiscoverX KINOMEscan KdELECT (Assay A)

T1 sequence (P29597 589-875 limits assumed): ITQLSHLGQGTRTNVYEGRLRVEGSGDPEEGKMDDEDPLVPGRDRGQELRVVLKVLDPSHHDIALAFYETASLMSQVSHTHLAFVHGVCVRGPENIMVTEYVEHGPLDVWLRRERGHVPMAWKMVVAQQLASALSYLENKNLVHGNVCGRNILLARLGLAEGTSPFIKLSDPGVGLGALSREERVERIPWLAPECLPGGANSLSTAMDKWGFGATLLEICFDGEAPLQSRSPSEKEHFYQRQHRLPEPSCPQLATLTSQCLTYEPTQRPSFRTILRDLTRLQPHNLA

Row | Compound | Kd [1, 3] [nM] | IC50 [2] [nM] | Kd ([1]; KINOMEscan KdELECT (Assay A)) [nM]
1 | [2H]C([2H])([2H])Nc1ncc(-c2nc3ccccn3n2)c2cc(NC(=O)[C@H]3C[C@H]3F)ncc12 [Example 566, (1R,2R)—N-(5-([1,2,4]triazolo[1,5-a]pyridin-2-yl)-8-((methyl-d3)amino)-2,7-naphthyridin-3-yl)-2-fluorocyclopropane-1-carboxamide] | ≤ 100 | ≤ 500 | –
2 | [2H]C([2H])([2H])Nc1ncc(-c2nc3ccccn3n2)c2cc(NC(=O)[C@@H]3C[C@@H]3F)ncc12 [Example 567, (1S,2S)—N-(5-([1,2,4]triazolo[1,5-a]pyridin-2-yl)-8-((methyl-d3)amino)-2,7-naphthyridin-3-yl)-2-fluorocyclopropane-1-carboxamide] | ≤ 100 | ≤ 500 | –
3 | [2H]C([2H])([2H])Nc1ncc(-c2nc3ccc(OC)cn3n2)c2cc(NC(=O)[C@H]3C[C@H]3F)ncc12 [Example 568, (1R,2R)-2-fluoro-N-(5-(6-methoxy-[1,2,4]triazolo[1,5-a]pyridin-2-yl)-8-((methyl-d3)amino)-2,7-naphthyridin-3-yl)cyclopropane-1-carboxamide] | ≤ 100 | ≤ 500 | –
4 | [2H]C([2H])([2H])Nc1ncc(-c2nc3ccc(OC)cn3n2)c2cc(NC(=O)[C@@H]3C[C@@H]3F)ncc12 [Example 569, (1S,2S)-2-fluoro-N-(5-(6-methoxy-[1,2,4]triazolo[1,5-a]pyridin-2-yl)-8-((methyl-d3)amino)-2,7-naphthyridin-3-yl)cyclopropane-1-carboxamide] | ≤ 100 | ≤ 500 | –
5 | [2H]C([2H])([2H])Nc1ncc(-c2nc3ccc(OC)cn3n2)c2cc(NC(=O)[C@H]3C[C@H]3C)ncc12 [Example 570, (1S,2R)—N-(5-(6-methoxy-[1,2,4]triazolo[1,5-a]pyridin-2-yl)-8-((methyl-d3)amino)-2,7-naphthyridin-3-yl)-2-methylcyclopropane-1-carboxamide] | ≤ 100 | ≤ 500 | –
6 | [2H]C([2H])([2H])Nc1ncc(-c2nc3ccc(N4CCOCC4)cn3n2)c2cc(NC(=O)C3(F)CC3)ncc12 [Example 571, 1-fluoro-N-(8-((methyl-d3)amino)-5-(6-morpholino-[1,2,4]triazolo[1,5-a]pyridin-2-yl)-2,7-naphthyridin-3-yl)cyclopropane-1-carboxamide] | ≤ 100 | ≤ 500 | –
7 | [2H]C([2H])([2H])Nc1ncc(-c2nc3ccc(N4CCOCC4)cn3n2)c2cc(NC(=O)[C@H]3C[C@H]3C)ncc12 [Example 572, (1S,2R)-2-methyl-N-(8-((methyl-d3)amino)-5-(6-morpholino-[1,2,4]triazolo[1,5-a]pyridin-2-yl)-2,7-naphthyridin-3-yl)cyclopropane-1-carboxamide] | ≤ 100 | ≤ 500 | –
8 | [2H]C([2H])([2H])Nc1ncc(-c2nc3ccc(N4CCO[C@@H](C)C4)cn3n2)c2cc(NC(=O)C3(F)CC3)ncc12 [Example 576, (S)-1-fluoro-N-(8-((methyl-d3)amino)-5-(6-(2-methylmorpholino)-[1,2,4]triazolo[1,5-a]pyridin-2-yl)-2,7-naphthyridin-3-yl)cyclopropane-1-carboxamide] | ≤ 100 | ≤ 500 | –
9 | [2H]C([2H])([2H])Nc1ncc(-c2nc3ccc(C)cn3n2)c2cc(NC(=O)C3(F)CC3)ncc12 [Example 577, 1-fluoro-N-(8-((methyl-d3)amino)-5-(6-methyl-[1,2,4]triazolo[1,5-a]pyridin-2-yl)-2,7-naphthyridin-3-yl)cyclopropane-1-carboxamide] | ≤ 100 | > 500 | –
10 | [2H]C([2H])([2H])Nc1ncc(-c2nc3ccc(C)cn3n2)c2cc(NC(=O)[C@@H]3C[C@@H]3F)ncc12 [Example 578, (1S,2S)-2-fluoro-N-(8-((methyl-d3)amino)-5-(6-methyl-[1,2,4]triazolo[1,5-a]pyridin-2-yl)-2,7-naphthyridin-3-yl)cyclopropane-1-carboxamide] | ≤ 100 | ≤ 500 | –
11 | CCNc1ncc(-c2nc3ccc(N4CCOCC4)cn3n2)c2cc(NC(=O)[C@H]3C[C@H]3C)ncc12 [Example 579, (1S,2R)—N-(8-(ethylamino)-5-(6-morpholino-[1,2,4]triazolo[1,5-a]pyridin-2-yl)-2,7-naphthyridin-3-yl)-2-methylcyclopropane-1-carboxamide] | ≤ 100 | ≤ 500 | –
12 | CCNc1ncc(-c2nc3ccc(N4CCOCC4)cn3n2)c2cc(NC(=O)C3(F)CC3)ncc12 [Example 580, N-(8-(ethylamino)-5-(6-morpholino-[1,2,4]triazolo[1,5-a]pyridin-2-yl)-2,7-naphthyridin-3-yl)-1-fluorocyclopropane-1-carboxamide] | ≤ 100 | ≤ 500 | –
13 | CCNc1ncc(-c2nc3ccc(N4CC5CN(C)CC(C4)O5)cn3n2)c2cc(NC(=O)C3CC3)ncc12 [Example 581, N-(8-(ethylamino)-5-(6-(7-methyl-9-oxa-3,7-diazabicyclo[3.3.1]nonan-3-yl)-[1,2,4]triazolo[1,5-a]pyridin-2-yl)-2,7-naphthyridin-3-yl)cyclopropanecarboxamide] | ≤ 100 | ≤ 500 | –
14 | CNc1ncc(-c2nc3ccc(N4CC5CN(C6CC6)CC(C4)O5)cn3n2)c2cc(NC(=O)C3CC3)ncc12 [Example 582, N-(5-(6-(7-cyclopropyl-9-oxa-3,7-diazabicyclo[3.3.1]nonan-3-yl)-[1,2,4]triazolo[1,5-a]pyridin-2-yl)-8-(methylamino)-2,7-naphthyridin-3-yl)cyclopropanecarboxamide] | ≤ 100 | ≤ 500 | –
15 | CNc1ncc(-c2nc3ccc(N4CC5COCC(C5)C4)cn3n2)c2cc(NC(=O)C3CC3)ncc12 [Example 583, N-(5-(6-(3-oxa-7-azabicyclo[3.3.1]nonan-7-yl)-[1,2,4]triazolo[1,5-a]pyridin-2-yl)-8-(methylamino)-2,7-naphthyridin-3-yl)cyclopropanecarboxamide] | ≤ 100 | ≤ 500 | –
16 | CNc1ncc(-c2nc3ccc(N4CC5CCC(C4)O5)cn3n2)c2cc(NC(=O)C3CC3)ncc12 [Example 584, N-(5-(6-(8-oxa-3-azabicyclo[3.2.1]octan-3-yl)-[1,2,4]triazolo[1,5-a]pyridin-2-yl)-8-(methylamino)-2,7-naphthyridin-3-yl)cyclopropanecarboxamide] | ≤ 100 | ≤ 500 | –
17 | CNc1ncc(-c2nc3ccc(N4CCOCC4)cn3n2)c2cc(Nc3ccc(C(C)(C)O)c(F)n3)ncc12 [Example 589, 2-(2-fluoro-6-((8-(methylamino)-5-(6-morpholino-[1,2,4]triazolo[1,5-a]pyridin-2-yl)-2,7-naphthyridin-3-yl)amino)pyridin-3-yl)propan-2-ol] | ≤ 100 | ≤ 500 | –
18 | CNc1ncc(-c2nc3ccc(N4CCO[C@@H](C)C4)cn3n2)c2cc(NC(=O)[C@@H]3C[C@@H]3C)ncc12 [Example 590, (1R,2S)-2-methyl-N-(8-(methylamino)-5-(6-((S)-2-methylmorpholino)-[1,2,4]triazolo[1,5-a]pyridin-2-yl)-2,7-naphthyridin-3-yl)cyclopropane-11-carboxamide] | ≤ 100 | ≤ 500 | –
19 | CNc1ncc(C#Cc2ccc(OC)cc2)c2cc(NC(=O)C3CC3)ncc12 [Example 591, N-(5-((4-methoxyphenyl)ethynyl)-8-(methylamino)-2,7-naphthyridin-3-yl)cyclopropanecarboxamide] | ≤ 100 | ≤ 500 | –
20 | CNc1ncc(C#CC2CCOCC2)c2cc(NC(=O)C3CC3)ncc12 [Example 592, N-(8-(methylamino)-5-((tetrahydro-2H-pyran-4-yl)ethynyl)-2,7-naphthyridin-3-yl)cyclopropanecarboxamide] | – | > 500 | ≤ 100
21 | CNc1ncc(C#Cc2cccc(O)c2)c2cc(NC(=O)C3CC3)ncc12 [Example 593, N-(5-((3-hydroxyphenyl)ethynyl)-8-(methylamino)-2,7-naphthyridin-3-yl)cyclopropanecarboxamide] | – | ≤ 500 | ≤ 100
22 | CCNc1ncc(C#Cc2ccc(OC)cn2)c2cc(NC(=O)C3CC3)ncc12 [Example 594, N-(8-(ethylamino)-5-((5-methoxypyridin-2-yl)ethynyl)-2,7-naphthyridin-3-yl)cyclopropanecarboxamide] | – | ≤ 500 | ≤ 100
23 | CNc1ncc(C#Cc2ccc3nnn(C)c3c2)c2cc(NC(=O)C3CC3)ncc12 [Example 595, N-(5-((1-methyl-1H-benzo[d][1,2,3]triazol-6-yl)ethynyl)-8-(methylamino)-2,7-naphthyridin-3-yl)cyclopropanecarboxamide] | – | ≤ 500 | ≤ 100
24 | CNc1ncc(C#Cc2ccn(C)n2)c2cc(NC(=O)C3CC3)ncc12 [Example 596, N-(5-((1-methyl-1H-pyrazol-3-yl)ethynyl)-8-(methylamino)-2,7-naphthyridin-3-yl)cyclopropanecarboxamide] | – | ≤ 500 | ≤ 100
25 | CNc1ncc(C#Cc2ncn(C)n2)c2cc(NC(=O)C3CC3)ncc12 [Example 597, N-(5-((1-methyl-1H-1,2,4-triazol-3-yl)ethynyl)-8-(methylamino)-2,7-naphthyridin-3-yl)cyclopropanecarboxamide] | – | ≤ 500 | ≤ 100
